# In PubChem BioAssay AID602191 (Broad Institute, 2012):
# Active and inactive are the calls of the source.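 The calls were made as follows: active = fitted curve reaches 40% activation at a concentration no higher than the top valid tested dose; inconclusive = flat fit between 30% and 70% activation, or poor fit; inactive = uptake decrease, flat fit within 30% of zero, the rest.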 Starred links: 1 amine or outer side, 2 acyl side, 3 side chain; linkers in the order of their positions; H or OH if unused. Non-standard residues stand in square brackets, D forms with d. Residues, ends and D or L forms follow the SMILES beside them. ξ: configuration not given here. X1 = CCCCCCC[C@H](O)C[C@@H](N[*:1])[C@@H](O)C(=O)[*:2]; X3 = COc1ccc(CCCC(N[*:1])C(=O)[*:2])cc1; ξThr(3R) = C[C@@H](O)C(N)C(=O)O; NMeN = CN[C@@H](CC(N)=O)C(=O)O; X2 = C/C=C(/N[*:1])C(=O)[*:2]; Dhb = C/C=C(\N)C(=O)O; Sar = CNCC(=O)O
# Molecular target: Scavenger receptor class B member 1 (Mus musculus) (UniProt Q61009)
# Assay: activators of SR-BI-mediated HDL uptake, dose response, cell-based, ldlA[mSR-BI] CHO, DiI fluorescence, cherry-pick (AID 602191);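 also: cell fluorescence from internalized DiI-labeled HDL after washing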;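 as to AC40: potency of activators raising HDL uptake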;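 as to activation (HDL uptake increase): 0% = median of DMSO wells and 100% = twice the DMSO signal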
# Settings: ldlA[mSR-BI] CHO cells, 3 h
# Scavenger receptor class B member 1 (Mus musculus), sequence (Q61009 whole entry, looked up): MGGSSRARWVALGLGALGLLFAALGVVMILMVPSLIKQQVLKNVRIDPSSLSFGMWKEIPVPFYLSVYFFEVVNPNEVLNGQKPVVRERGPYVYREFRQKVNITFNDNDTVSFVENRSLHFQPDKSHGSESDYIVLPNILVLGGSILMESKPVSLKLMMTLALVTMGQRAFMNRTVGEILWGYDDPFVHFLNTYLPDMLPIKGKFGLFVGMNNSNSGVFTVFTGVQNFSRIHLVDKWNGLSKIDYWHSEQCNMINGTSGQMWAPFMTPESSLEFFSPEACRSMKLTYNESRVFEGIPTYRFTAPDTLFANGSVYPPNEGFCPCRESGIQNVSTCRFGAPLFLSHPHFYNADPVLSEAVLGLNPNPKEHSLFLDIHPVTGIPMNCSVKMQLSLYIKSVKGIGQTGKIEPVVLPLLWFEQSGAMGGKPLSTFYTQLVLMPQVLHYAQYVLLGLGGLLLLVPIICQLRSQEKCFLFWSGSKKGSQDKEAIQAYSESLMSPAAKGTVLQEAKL
row,SMILES,AC40
1,O=c1c(C=NCCN2CCNCC2)c(O)n(C2CCCCC2)c(=O)n1C1CCCCC1,> 35 µM (inactive)
2,C/C=C1\NC(=O)[C@H](CC(N)=O)N(C)C(=O)C([C@@H](C)O)NC(=O)C(CCCc2ccc(OC)cc2)NC(=O)[C@H](C(C)C)NC(=O)/C(=C\C)NC(=O)[C@H](O)[C@@H](C[C@@H](O)CCCCCCC)NC(=O)[C@H](C)NC(=O)CN(C)C(=O)[C@H](CCC(N)=O)NC1=O (stereo partly drawn) (cyclo(A[X1][X2]V[X3][ξThr(3R)][NMeN][Dhb]Q[Sar])),28 µM
3,CCN1CCN(c2ccc(S(=O)(=O)N3CCOCC3)cc2NC(=O)C2CCC(C(C)(C)C)CC2)CC1 (stereo not given),> 35 µM (inactive)
4,CN(C)C(=O)CCc1ccc2c3c([nH]c2c1)[C@]1(CCC2CCCC2)[C@@H](C(=O)N2CCOCC2)C[C@H](CC(=O)NCC24CC5CC(CC(C5)C2)C4)C(=O)N1CC3,> 35 µM (inactive)
5,COc1ccc(OC)c(S(=O)(=O)NCCCN2CCCC2=O)c1,> 35 µM (inactive)

# Same assay, conditions: ldlA[mSR-BI] CHO cells, 3 h, at 35 µM (top of the series)
row,SMILES,activation (HDL uptake increase)
1,CCOC(=O)C1CCCN(S(=O)(=O)c2ccc3ccccc3c2)C1 (stereo not given),-7.01% (inactive)
2,CN(C)c1nc(C#N)nc(N2CCOCC2)n1,4.22% (inactive)
3,COc1cc(-n2c(C)nc3cc(C(=O)NCC4CCCO4)ccc32)cc(OC)c1OC (stereo not given),-12.1% (inactive)
4,COc1ccc(Oc2nc(Oc3ccc(OC)cc3)nc(Oc3ccc(OC)cc3)n2)cc1,-9.22% (inactive)
5,CNC[C@H](CC1CCCCC1)NC[C@H](Cc1ccccc1)NCCC12CC3CC(CC(C3)C1)C2,-31.7% (inactive)
6,CSCCC(NC(=O)c1ccco1)C(=O)NCc1ccc(F)cc1 (stereo not given),-8.99% (inactive)
7,O=C(OCc1ccccc1)c1cccc(-c2nnc(-c3ccccc3)o2)c1,-15.9% (inactive)
8,CCC(C)[C@@H](C(=O)NCC1CCC(C(=O)O)CC1)n1nnc2ccccc2c1=O (stereo not given in full),-5.54% (inactive)
9,COc1ccc(N(CC(=O)NCCSc2ccccn2)S(=O)(=O)c2ccc(C)cc2)cc1OC,-0.821% (inactive)
10,CCn1nnnc1-c1ccc(OC)c(S(=O)(=O)Nc2ccc(C)c(C)c2)c1,-11.8% (inactive)
11,CCOC(=O)N1CCC(NC(=S)Nc2ccc3nc(N4CCN(C)CC4)cc(C)c3c2)CC1,-25.6% (inactive)
12,CC1CCCC(NC(=O)CSc2nncs2)C1C (stereo not given),-4.42% (inactive)
13,O=C(O)CCc1nnc(SCC(=O)Nc2cccc(C(F)(F)F)c2)[nH]c1=O,-1.57% (inactive)
14,CN1CCN(C(=O)C2=C[C@@H](c3coc4ccccc4c3=O)C[C@@H](OCCCCO)O2)CC1,-7.43% (inactive)
15,COc1ccc(NC(=O)CN(C)C(=O)CCC2CCCC2)cc1,-6.8% (inactive)
16,COc1ccc(C(=O)C2CCCN(C(=O)/C=C/c3ccccn3)C2)c(C)c1 (stereo not given),-6.34% (inactive)
17,COc1ccc(C(=O)N2CCNC(=O)C2)cc1S(=O)(=O)Nc1ccc(Br)cc1,-3.81% (inactive)
18,Cc1ccccc1-n1nc2c(c1NC(=O)c1ccco1)CS(=O)(=O)C2,-9.94% (inactive)

row,SMILES,activation (HDL uptake increase)
1,CCN1CCN(C(=O)C2CCC(=O)N(Cc3cccc(C(F)(F)F)c3)C2)CC1 (stereo not given),-0.502% (inactive)
2,CC(C(=O)NCCS(=O)(=O)c1ccc(Br)cc1)S(=O)(=O)c1ccc(Cl)cc1 (stereo not given),11.1% (inactive)
3,O=C1NC2NC(=O)N(C(Cc3ccccc3)C(=O)O)C2N1 (stereo not given),-4.43% (inactive)
4,O=C1N(C2CCCC2)C[C@@H]2C[C@@H](c3cn[nH]c3-c3ccc(Cl)cc3)N3CCC[C@@]123,0.818% (inactive)
5,CCS(=O)(=O)c1nc(S(=O)(=O)c2ccc(C)cc2)c(N2CCC(C)CC2)s1,-8.15% (inactive)
6,COc1ccccc1C(=O)NC(=O)COC(=O)c1cccc(NC(C)=O)c1,-5.38% (inactive)
7,CN(C(=O)COC(=O)c1cccc(S(=O)(=O)N2CCOCC2)c1)C1CCS(=O)(=O)C1 (stereo not given),5.01% (inactive)
8,O=C(O)COCC(=O)N1CCc2c([nH]c3ccccc23)C1C(F)(F)F (stereo not given),-5.94% (inactive)
9,Cc1c(NC(=O)c2ccc(Br)o2)cccc1C(=O)O,5.98% (inactive)
10,O=C(NNC(=O)C1CC(c2cccnc2)=NO1)Nc1cccc(F)c1 (stereo not given),-5.33% (inactive)
11,O=C(COC(=O)c1ccco1)c1ccc(S(=O)(=O)N2CCCCC2)cc1,-16.4% (inactive)
12,COc1ccc(-n2nc3c(c2NC(=O)c2ccc(S(=O)(=O)N4CCOCC4)cc2)CS(=O)C3)cc1 (stereo not given),-10.8% (inactive)
13,CC(=O)c1cccc(S(=O)(=O)NCCCN2CCOCC2)c1,-4.98% (inactive)
14,O=C(CCN1C(=O)c2ccccc2C1=O)C1=NN[C@@H]2C(=O)N(c3cccc(F)c3)C(=O)[C@H]12,-9.51% (inactive)
15,O=C(OCCc1cc2ccccc2c(=O)o1)c1ccc(F)cc1,-13.6% (inactive)
16,Cc1cccc(CCNS(=O)(=O)c2ccc3c(c2)NC(=O)CO3)c1,11.6% (inactive)
17,COc1ccccc1N(C(=O)c1snc(C(N)=O)c1N)C(C(=O)NCCC(C)C)c1ccco1 (stereo not given),7.43% (inactive)
